According to BigSolDB 2.1:

Nc1ccc(Br)nn1
solubility (mole fraction)
Details	in DMF	in acetone	in ethanol	in isopropanol	in methanol	in n-butanol	in n-propanol	in propylene glycol	in toluene	in water
278.15 K	0.0126	0.00754	0.00216	0.00276	0.00108	0.00362	0.00316	0.00191	0.00989	2.57e-05
283.15 K	0.0134	0.00832	0.00233	0.0031	0.00115	0.00405	0.00356	0.00205	0.0108	2.74e-05
288.15 K	0.0144	0.0092	0.00251	0.00346	0.00123	0.00451	0.00401	0.0022	0.0118	2.94e-05
293.15 K	0.0155	0.0102	0.0027	0.00384	0.00131	0.005	0.00446	0.0024	0.0129	3.18e-05
298.15 K	0.0167	0.0113	0.0029	0.0043	0.00142	0.00556	0.00496	0.0026	0.0141	3.43e-05
303.15 K	0.0179	0.0125	0.00314	0.00475	0.00152	0.0062	0.00557	0.00281	0.0154	3.7e-05
308.15 K	0.0192	0.0138	0.0034	0.0053	0.00165	0.00687	0.00617	0.00305	0.0167	3.97e-05
313.15 K	0.0206	0.0153	0.00366	0.00586	0.00178	0.00759	0.00683	0.0033	0.018	4.27e-05
318.15 K	0.0223	0.0169	0.00399	0.00649	0.00192	0.00838	0.00758	0.00357	0.0196	4.6e-05
323.15 K	0.0242	0.0188	0.0044	0.00721	0.00209	0.00933	0.0085	0.00391	0.0213	4.98e-05
